Results taken from patent publication US4166852A, “Piperazino-pyrimidines and their use as spasmolytic agents” (priority 1974, dated 1979).
≈ marks a conversion by molar mass, not a printed value. Structures can show the parent of a compound that is named as a salt. Where two headings read alike, the source gives them in different places.

Experiments:
[1] = acute toxicity, LD 50, CD 1 mice; format: in vivo; details: mouse, in vivo
Excerpt: (§1) The acute toxicities of the compounds according to the invention have been determined on CD 1 (Charles RIVER) mice by intravenous and oral methods. The LD 50 of each compound has been calculated by the cumulative method of J. J. Reed and H. Muench, (Amer. J. Hyg., 1938, 27, 493).

[2] = system: dogs; assay: anti-emetic activity, apomorphine vomiting test on dogs; format: in vivo; details: Canis lupus familiaris, po, read-out: Anti-emetic activity on dogs ED 50
Excerpt: The anti-emetic properties of the compounds according to the invention have been shown by oral administration of apomorphine to dogs in the vomiting test according to G. Chen and C. J. Ensor, Pharmacol. exp. Therap., 98, 24 (1950).

[3] = system: rat; assay: catalepsy test, rat; format: in vivo, CD rat (Charles RIVER); details: po, orally, read-out: Catalepsy AD 50
Excerpt: (§2) The neuroloptic effects of the compounds according to the invention have been shown with respect to the CD rat (Charles RIVER) taken orally in the catalepsy test according to S. COURVOISIER, R. DUCROT, and L. JULOU, in Psychotropic Drugs, S. GARATTINI and V. GHETTI, Edit.--ELSEVIER Publ. Co., AMSTERDAM, LONDON, NEW YORK, PRINCETON, 1957 P. 373 and also in the traction test of CD1 (Charles RIVER) mice taken orally S. COURVOISIER, Quart. Rev. Psychiat. Neurol. 17, 25 (1956), on the one hand and also in the spontaneous motility test.

[4] = system: mouse; assay: traction test, mouse; format: in vivo, CD1 (Charles RIVER) mice; details: po, orally, read-out: Traction AD 50
Excerpt: as §2

[5] = system: mice; assay: analgesic activity, painful abdominal torsions test with phenylbenzoquinone; format: in vivo, CD 1 (Charles RIVER) mice; details: Mus musculus, po; mice, orally; read-out: Phenylbenzoquinone test on mice AD 50
Excerpt: The analgesic properties of the products according to the invention have been shown with CD 1 (Charles RIVER) mice in the painful abdominal torsions test with phenylbenzoquinone according to the technique of E. Siegmund, R. Cadmus and Go.Lu--Proc. Soc. Exp. Biol. Med., 95, 729, (1957).

[6] = system: serotonine plantar oedema; assay: anti-serotonine activity, serotonine plantar oedema; format: in vivo, CD (Charles RIVER) rats; details: po; rat, orally; read-out: Serotonine plantar oedema AD 50
Excerpt: (§3) The anti-serotonine activities of the compounds according to the invention have been shown by oral administration to the CD (Charles RIVER) rats using the technique of the serotonine plantar oedema (W. Theobald and R. Domenjoz--Arzneimittel Forsch, 8, 18, 1958 and with the CD 1 (Charles RIVER) mice using the technique known as "head twitch" according to S. J. Corne, R. W. Pickering and B. T. Warner, Brit. J. Pharmacol., 20, 106, (1963). The anti-serotonine activity has also been determined on the one hand on the tricoloured guinea-pig, given intravenously, according to a method derived from H. Konzet and R. Rossler, Arch. exp. Pathol, Pharmakol., 195, 71, (1940) and on the other hand in vitro with respect to the serotonine spasm of the isolated uterus of the rat according to the technique of A. Fanchamps, W. Doepfener, H. Weidman and A. Cerletti, Schw. Med. Worsch, 90, 1940, (1960).

[7] = system: head twitch; assay: anti-serotonine activity, head twitch; format: in vivo, CD 1 (Charles RIVER) mice; details: Mus musculus, po; mice, orally; read-out: "Head-twitch" AD 50
Excerpt: as §3

[8] = system: serotonine bronchospasms; assay: anti-serotonine activity, serotonine bronchospasms; format: in vivo, tricoloured guinea-pig; details: Cavia porcellus, iv; guinea pig, intravenously; read-out: Serotonine bronchospasms ED 50
Excerpt: as §3

[9] = system: isolated duodenum of the rabbit (acetylcholine); assay: spasmolytic effect on isolated duodenum, acetylcholine spasm; format: cell-based; details: Oryctolagus cuniculus, read-out: Spasmolytic effects EC 50 with respect to acetylcholine
Excerpt: (§4) Ges. Physiol., 102, 123, (1904) with respect to the spasms of the isolated duodenum of rabbits caused either by acetylchlorine for the spasmolytic nemotropes or by barium chloride for the spasmolytic musculotropes.

[10] = system: isolated duodenum of the rabbit (barium chloride); assay: spasmolytic effect on isolated duodenum, barium chloride spasm; format: cell-based; details: Oryctolagus cuniculus, read-out: Spasmolytic effects EC 50 with respect to barium chloride
Excerpt: as §4

[11] = system: mice; assay: acute toxicity, LD 50, CD 1 mice; format: in vivo; details: intravenous
Excerpt: as §1

[12] = system: mouse; assay: spontaneous motility test (hypomotility), mouse; format: in vivo, mice; details: po, 1 h, orally, 60 minutes before measuring, 50% reduction of mean motility, first 5 minutes, read-out: Hypomotility ED 50
Excerpt: as §2
This latter technique comprises keeping an account of the displacements of the mice by means of a floor of metal strips which enables the spontaneous activity of the animals to be recorded during the first 5 minutes subsequent to their being introduced into the measuring chamber. The products are dispensed 60 minutes before measuring is effected and 10 mice are used per dose. The results are expressed in ED 50 which represents the dose of substance capable of reducing the mean motility of the treated animals by 50% relative to that of the sample group which has only received the dispensing carrier.

[13] = solubility; format: physicochemical
[14] = intravenous, read-out: Acute toxicity for mice LD 50, intravenous
[15] = oral, read-out: Acute toxicity for mice LD 50, orally

For CCNc1nc(Cl)c(SC)c(N2CCN(C)CC2)n1 [Example 1, 2-Ethylamino-4-N-methyl-piperazino-6-chloro-5-methylthio-pyrimidine hydrochloride], the LD50 [1, 14] was 41 mg/kg, the LD50 [1, 15] was ~200 mg/kg and the ED50 [2] was 0.35 mg/kg. The ED50 [3] was 85 mg/kg, the ED50 [4] was > 35 mg/kg and the ED50 [5] was 35 mg/kg. The ED50 [6] was 160 mg/kg, the ED50 [7] was 30 mg/kg and the ED50 [8] was 6 mg/kg. The EC50 [9] was 5 µg/mL and the EC50 [10] was 1.6 µg/mL.
In the case of CSc1c(Cl)nc(Nc2ccccc2)nc1N1CCN(C)CC1 [Example 4, 2-phenylamino-4-N-methylpiperazino-6-chloro-5-methylthio-pyrimidine hydrochloride], the LD50 [1, 15] is reported as ~600 mg/kg, the “Acute toxicity for mice LD 50, intravenous” value (shortened to “Acute toxicity”) [11] is reported as “insoluble” and the ED50 [7] is reported as 60 mg/kg.
In the case of CC(=O)Nc1nc(Cl)c(C)c(N2CCN(C)CC2)n1 [Example 14, 2-Acetylamino-4-N-methylpiperazino-5-methyl-6-chloro-pyrimidine], the LD50 [1, 15] is reported as ~270 mg/kg, the “Acute toxicity” value [11] is reported as “insoluble” and the ED50 ([2]; dogs, orally, apomorphine) is reported as 3.7 mg/kg. For the same compound, the ED50 [5] was 35 mg/kg.
In the case of CSc1c(Cl)nc(N(C)C(C)=O)nc1N1CCN(C)CC1 [Example 16, 2-(N-methyl-N-acetyl)amino-4-N-methylpiperazino-5-methylthio-6-chloro-pyrimidine hydrochloride], the LD50 [1, 15] is reported as ~525 mg/kg, the “Acute toxicity” value [11] is reported as “insoluble” and the ED50 [6] is reported as 100 mg/kg. For the same compound, the ED50 [7] was > 100 mg/kg.
For CCOCCOc1nc(NC)nc(N2CCN(C)CC2)c1SC [Example 20, 2-Methylamino-4-N-methylpiperazino-5-methylthio-6-β-ethoxyethoxy-pyrimidine hydrochloride], the LD50 [1, 15] was ~265 mg/kg and the “Acute toxicity” value [11] was “insoluble”.
With CSc1c(Cl)nc(NC2CCCCC2)nc1N1CCN(C)CC1 [Example 23, 2-Cyclohexylamino-4-N-methylpiperazino-6-chloro-5-methylthiopyrimidine] the LD50 [1, 14] was 89 mg/kg, the ED50 [3] was 300 mg/kg and the ED50 [4] was > 300 mg/kg. The ED50 [12] was 220 mg/kg, the ED50 [5] was 100 mg/kg and the ED50 [7] was 67 mg/kg. For the same compound, the ED50 [8] was 0.3 mg/kg, the EC50 [9] was 70 µg/mL (≈ 197 µM) and the EC50 [10] was 0.25 µg/mL (≈ 0.702 µM). The “solubility in dilute hydrochloric acid” value [13] was “soluble”, the “solubility in ethanol (alcohol)” value [13] was “soluble” and the solubility in water [13] was “insoluble”.
With CSc1c(Cl)nc(NCc2ccccc2)nc1N1CCN(C)CC1 [Example 26, 2-Benzylamino-4-N-methylpiperazino-5-methylthio-6-chloropyrimidine] the LD50 [1, 14] was 85 mg/kg, the LD50 [1, 15] was ~525 mg/kg and the ED50 ([2]; dogs, orally, apomorphine) was ~2 mg/kg. The ED50 [3] was 33 mg/kg, the ED50 [4] was 45 mg/kg and the ED50 [12] was 20 mg/kg. It also gave an ED50 [5] of 35 mg/kg, an ED50 [7] of 17 mg/kg and an ED50 [8] of 0.05 mg/kg. The EC50 [9] was 0.2 µg/mL (≈ 0.55 µM), the EC50 [10] was 0.17 µg/mL (≈ 0.467 µM) and the “solubility in dilute hydrochloric acid” value [13] was “scarcely soluble”. For the same compound, the “solubility in dilute methanesulphonic acid” value [13] was “soluble” and the solubility in water [13] was “soluble”.
For CCCCN1CCN(c2nc(N(C)Cc3ccccc3)nc(Cl)c2SC)CC1 [Example 27, 2-(N-methyl N-benzylamino)-4-N-butylpiperazino-5-methylthio-6-chloropyrimidine hydrochloride], the “Acute toxicity” value [11] was “insoluble”, the ED50 ([2]; dogs, orally, apomorphine) was 1.5 mg/kg and the ED50 [12] was 160 mg/kg. For the same compound, the ED50 [5] was 400 mg/kg, the ED50 [6] was > 400 mg/kg and the solubility in dimethylsulphoxide ([13]; dimethylsulphoxide) was “soluble”. For the same compound, the solubility in water [13] was “insoluble”.
With CCCCN1CCN(c2nc(N3CCOCC3)nc(Cl)c2SC)CC1 [Example 29, 2-Morpholino-4-N-butylpiperazino-5-methylthio-6-chloropyrimidine] the LD50 [1, 15] was ~600 mg/kg, the “Acute toxicity” value [11] was “insoluble” and the ED50 ([2]; dogs, orally, apomorphine) was > 5 mg/kg. It also gave an ED50 [12] of 50 mg/kg, an ED50 [5] of 55 mg/kg and an ED50 [7] of 80 mg/kg. For the same compound, the “solubility in dilute methanesulphonic acid” value [13] was “soluble”, the “solubility in ethanol (alcohol)” value [13] was “soluble” and the solubility in water [13] was “insoluble”.
